Common to all, as to format: binding
The target of experiment [1] is T1, PnPEPCK (Polaromonas naphthalenivorans, UniProt A1VIE9).
T1 construct: gene pckG; full length, 622 residues, N-terminal His6-SUMO tag cleaved off with no additional amino acids; codon-optimised gene in pESUMO-Star; E. coli BL21(DE3); EC 4.1.1.32
Nature of the experiment: X-ray crystal structure.

A further experiment addresses T2, rcPEPCK (Rattus norvegicus, UniProt P07379).
T2 construct: gene Pck1; full length, 622 residues, SUMO tag removed by SUMO protease; E. coli BL21(DE3)
T2 sequence (P07379 1-622): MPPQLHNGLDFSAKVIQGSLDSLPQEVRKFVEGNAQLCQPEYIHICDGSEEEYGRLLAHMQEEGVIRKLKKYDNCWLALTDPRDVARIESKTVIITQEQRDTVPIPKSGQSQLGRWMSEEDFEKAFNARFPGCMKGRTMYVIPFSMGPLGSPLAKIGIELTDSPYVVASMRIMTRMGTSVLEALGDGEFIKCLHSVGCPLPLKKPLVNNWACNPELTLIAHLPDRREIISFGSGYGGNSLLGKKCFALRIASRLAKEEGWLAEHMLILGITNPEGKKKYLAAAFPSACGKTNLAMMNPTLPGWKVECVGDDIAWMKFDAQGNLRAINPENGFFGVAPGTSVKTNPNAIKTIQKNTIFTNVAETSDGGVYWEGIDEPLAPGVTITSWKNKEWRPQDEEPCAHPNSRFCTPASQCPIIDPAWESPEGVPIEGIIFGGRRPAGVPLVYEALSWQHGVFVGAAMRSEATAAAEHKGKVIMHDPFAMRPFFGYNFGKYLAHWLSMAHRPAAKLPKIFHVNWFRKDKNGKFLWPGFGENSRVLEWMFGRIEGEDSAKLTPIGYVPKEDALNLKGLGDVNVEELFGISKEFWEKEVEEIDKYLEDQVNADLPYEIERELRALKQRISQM
In words: differential scanning fluorimetry (SYPRO Orange). Conditions: reference is the Mn-only enzyme, 21.4 μM enzyme, 1 mM MnCl2, 25 mM HEPES pH 7.4. An excerpt:
differential scanning fluorimetry (SYPRO Orange) on rcPEPCK
On the technique in general: Differential scanning fluorimetry follows unfolding on heating by fluorescence.

Experiment [2] has as its target T1, PnPEPCK. In words: differential scanning fluorimetry (SYPRO Orange). Conditions: reference is the Mn-only enzyme, 21.4 μM enzyme, 1 mM MnCl2, 25 mM HEPES pH 7.4. An excerpt:
differential scanning fluorimetry (SYPRO Orange) on PnPEPCK

Setting [3] is: absolute TM of Mn-GTP complex, 214 μM GTP.
Setting [4] is: absolute TM of Mn-oxalate complex, 214 μM oxalate.

T1 sequence (A1VIE9 entry or part of it): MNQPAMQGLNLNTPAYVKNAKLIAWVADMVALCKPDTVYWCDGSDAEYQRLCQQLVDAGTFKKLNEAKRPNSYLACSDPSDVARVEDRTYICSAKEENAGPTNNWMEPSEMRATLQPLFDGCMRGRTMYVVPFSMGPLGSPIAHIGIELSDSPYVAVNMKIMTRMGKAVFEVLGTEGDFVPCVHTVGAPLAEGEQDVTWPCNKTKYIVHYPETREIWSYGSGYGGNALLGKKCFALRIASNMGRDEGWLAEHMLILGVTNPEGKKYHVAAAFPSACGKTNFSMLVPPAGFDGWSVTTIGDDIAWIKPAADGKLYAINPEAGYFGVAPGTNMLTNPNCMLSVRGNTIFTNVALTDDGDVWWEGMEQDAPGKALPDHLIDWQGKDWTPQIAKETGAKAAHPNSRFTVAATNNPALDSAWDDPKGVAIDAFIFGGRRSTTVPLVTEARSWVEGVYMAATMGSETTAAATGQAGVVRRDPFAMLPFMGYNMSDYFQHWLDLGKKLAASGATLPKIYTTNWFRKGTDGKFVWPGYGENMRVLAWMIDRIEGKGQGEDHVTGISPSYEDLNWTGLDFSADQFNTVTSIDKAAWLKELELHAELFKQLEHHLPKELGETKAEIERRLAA

`Nc1nc2c(ncn2[C@@H]2O[C@H](COP(=O)(O)OP(=O)(O)O)[C@@H](O)[C@H]2O)c(=O)[nH]1` [GDP]: the X-ray crystal structure entry at PnPEPCK [1] (ternary complex with PGA, closed) is “All three ternary complexes (βSP‐GTP, oxalate‐GTP, and PGA‐GDP)”. `Nc1nc2c(ncn2[C@@H]2O[C@H](COP(=O)(O)OP(=O)(O)OP(=O)(O)O)[C@@H](O)[C@H]2O)c(=O)[nH]1` [GTP]: the “rcPEPCK / T M (°C)” value at rcPEPCK (setting [3]) was 61.4 °C. Moreover, the “PnPEPCK / T M (°C)” value on PnPEPCK [2] (setting [3]) amounted to 59.5 °C. Besides, on PnPEPCK [1] (ternary complexes with βSP or oxalate, closed), the X-ray crystal structure result is “All three ternary complexes (βSP‐GTP, oxalate‐GTP, and PGA‐GDP)”.

On to `C=C(OP(=O)(O)O)C(=O)O` [PEP], for which the X-ray crystal structure result at PnPEPCK [1] (binary Mn2+ complex, open, P2_12_12_1 and C222_1 crystals) is “both with PEP bound at the active site”. Consider `O=C(O)COP(=O)(O)O` [PGA], for which the X-ray crystal structure entry at PnPEPCK [1] (PEP analogue, ternary complex with GDP, closed) is “All three ternary complexes (βSP‐GTP, oxalate‐GTP, and PGA‐GDP)”. Turning to `O=C(O)C(=O)O` [oxalate], on rcPEPCK (setting [4]), the “rcPEPCK / T M (°C)” value turned out to be 54.4 °C. The “PnPEPCK / T M (°C)” value on PnPEPCK [2] (setting [4]) was determined as 46.3 °C. In addition, at PnPEPCK [1] (enol-pyruvate mimic, ternary complex with GTP, closed), the X-ray crystal structure entry was “All three ternary complexes (βSP‐GTP, oxalate‐GTP, and PGA‐GDP)”. For `O=C(O)C(=O)CS(=O)(=O)O` [βSP], at PnPEPCK [1] (OAA analogue, binary Mn2+ complex and ternary complex with GTP, closed), the X-ray crystal structure result was “All three ternary complexes (βSP‐GTP, oxalate‐GTP, and PGA‐GDP) in addition to βSP alone”.

(Values after PMC12529880, “Structural mechanisms for cold‐adapted activity of phosphoenolpyruvate carboxykinase” (Protein Science : A Publication of the Protein Society, 2025).)
